Source: PubChem BioAssay (NCI)
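Test compounds were applied to cells in 96-well plates for 48 hours at 5 doses. Abbreviation: GI50, concentration required for 50% inhibition of growth. TGI denotes the concentration required for complete inhibition of growth.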

Key:
Experiment in all cases: NCI anticancer screen, dose series, 48 h
786-0 renal = tested on: 786-0 renal
A498 renal = tested on: A498 renal
A549 NSCLC = tested on: A549 NSCLC
ACHN renal = tested on: ACHN renal
BT-549 breast = tested on: BT-549 breast
CAKI-1 renal = tested on: CAKI-1 renal
CCRF-CEM leukemia = tested on: CCRF-CEM leukemia
COLO 205 colon = tested on: COLO 205 colon
DU-145 prostate = tested on: DU-145 prostate
EKVX NSCLC = tested on: EKVX NSCLC
HCC-2998 colon = tested on: HCC-2998 colon
HCT-116 colon = tested on: HCT-116 colon
HCT-15 colon = tested on: HCT-15 colon
HL-60(TB) leukemia = tested on: HL-60(TB) leukemia
HOP-62 NSCLC = tested on: HOP-62 NSCLC
HOP-92 NSCLC = tested on: HOP-92 NSCLC
HS 578T breast = tested on: HS 578T breast
HT29 colon = tested on: HT29 colon
IGROV1 ovarian = tested on: IGROV1 ovarian
K-562 leukemia = tested on: K-562 leukemia
KM12 colon = tested on: KM12 colon
LOX IMVI melanoma = tested on: LOX IMVI melanoma
M14 melanoma = tested on: M14 melanoma
MALME-3M melanoma = tested on: MALME-3M melanoma
MCF7 breast = tested on: MCF7 breast
MDA-MB-231 breast = tested on: MDA-MB-231 breast
MDA-MB-435 = tested on: MDA-MB-435
MDA-MB-468 breast = tested on: MDA-MB-468 breast
MOLT-4 leukemia = tested on: MOLT-4 leukemia
NCI-H226 lung = tested on: NCI-H226 lung
NCI-H23 lung = tested on: NCI-H23 lung
NCI-H460 lung = tested on: NCI-H460 lung
NCI-H522 lung = tested on: NCI-H522 lung
OVCAR-3 ovarian = tested on: OVCAR-3 ovarian
OVCAR-4 ovarian = tested on: OVCAR-4 ovarian
OVCAR-5 ovarian = tested on: OVCAR-5 ovarian
OVCAR-8 ovarian = tested on: OVCAR-8 ovarian
PC-3 prostate = tested on: PC-3 prostate
RPMI-8226 leukemia = tested on: RPMI-8226 leukemia
RXF 393 renal = tested on: RXF 393 renal
SF-268 CNS = tested on: SF-268 CNS
SF-295 CNS = tested on: SF-295 CNS
SF-539 CNS = tested on: SF-539 CNS
SK-MEL-2 melanoma = tested on: SK-MEL-2 melanoma
SK-MEL-28 melanoma = tested on: SK-MEL-28 melanoma
SK-MEL-5 melanoma = tested on: SK-MEL-5 melanoma
SK-OV-3 ovarian = tested on: SK-OV-3 ovarian
SN12C renal = tested on: SN12C renal
SNB-19 CNS = tested on: SNB-19 CNS
SR leukemia = tested on: SR leukemia
SW-620 colon = tested on: SW-620 colon
T-47D breast = tested on: T-47D breast
TK-10 renal = tested on: TK-10 renal
U251 CNS = tested on: U251 CNS
UACC-257 melanoma = tested on: UACC-257 melanoma
UACC-62 melanoma = tested on: UACC-62 melanoma
UO-31 renal = tested on: UO-31 renal

`Cn1cc(-c2cc3nc(-c4cn(C)c5ncc(Br)cc45)cc(N)n3n2)c2cc(F)ccc21` showed a GI50 (786-0 renal) of 4.64 µM, a TGI (786-0 renal) of 17 µM and a GI50 (A498 renal) of 13.5 µM. For the same compound, the TGI (A498 renal) was 30.2 µM, the GI50 (A549 NSCLC) was 3.37 µM and the TGI (A549 NSCLC) was 16.8 µM. It also gave a GI50 (ACHN renal) of 3.72 µM, a TGI (ACHN renal) of 13.2 µM and a GI50 (BT-549 breast) of 10.9 µM. For the same compound, the TGI (BT-549 breast) was 23.6 µM, the GI50 (CAKI-1 renal) was 8.11 µM and the TGI (CAKI-1 renal) was 22.5 µM. For the same compound, the GI50 (CCRF-CEM leukemia) was 8.29 µM, the TGI (CCRF-CEM leukemia) was > 100 µM and the GI50 (COLO 205 colon) was 12.6 µM. For the same compound, the TGI (COLO 205 colon) was 40.7 µM, the GI50 (DU-145 prostate) was 5.16 µM and the TGI (DU-145 prostate) was 19.3 µM. For the same compound, the GI50 (EKVX NSCLC) was 11.4 µM, the TGI (EKVX NSCLC) was 29.7 µM and the GI50 (HCC-2998 colon) was 7.19 µM. For the same compound, the TGI (HCC-2998 colon) was 27.6 µM, the GI50 (HCT-116 colon) was 15 µM and the TGI (HCT-116 colon) was 32.3 µM. It also gave a GI50 (HCT-15 colon) of 3.73 µM, a TGI (HCT-15 colon) of 16.4 µM and a GI50 (HL-60(TB) leukemia) of 12.1 µM. The TGI (HL-60(TB) leukemia) was 73.1 µM, the GI50 (HOP-62 NSCLC) was 7.8 µM and the TGI (HOP-62 NSCLC) was 24.3 µM. For the same compound, the GI50 (HOP-92 NSCLC) was 11.3 µM, the TGI (HOP-92 NSCLC) was 33.8 µM and the GI50 (HS 578T breast) was 10.7 µM. For the same compound, the TGI (HS 578T breast) was 48.6 µM, the GI50 (HT29 colon) was 3.18 µM and the TGI (HT29 colon) was 11.3 µM. The GI50 (IGROV1 ovarian) was 3.91 µM, the TGI (IGROV1 ovarian) was 14.1 µM and the GI50 (K-562 leukemia) was 6 µM. For the same compound, the TGI (K-562 leukemia) was > 100 µM, the GI50 (KM12 colon) was 12.9 µM and the TGI (KM12 colon) was 49 µM. For the same compound, the GI50 (LOX IMVI melanoma) was 1.91 µM, the TGI (LOX IMVI melanoma) was 3.47 µM and the GI50 (M14 melanoma) was 4.05 µM. The TGI (M14 melanoma) was 14.9 µM, the GI50 (MALME-3M melanoma) was 3.43 µM and the TGI (MALME-3M melanoma) was 12.1 µM. For the same compound, the GI50 (MCF7 breast) was 3.6 µM, the TGI (MCF7 breast) was 12.8 µM and the GI50 (MDA-MB-231 breast) was 2.9 µM. The TGI (MDA-MB-231 breast) was 10 µM, the GI50 (MDA-MB-435) was 6.19 µM and the TGI (MDA-MB-435) was 20.1 µM. It also gave a GI50 (MDA-MB-468 breast) of 1.95 µM, a TGI (MDA-MB-468 breast) of 4.19 µM and a GI50 (MOLT-4 leukemia) of 5.98 µM. The TGI (MOLT-4 leukemia) was > 100 µM, the GI50 (NCI-H226 lung) was 5.36 µM and the TGI (NCI-H226 lung) was 19.8 µM. The GI50 (NCI-H23 lung) was 7.44 µM, the TGI (NCI-H23 lung) was 21.3 µM and the GI50 (NCI-H460 lung) was 3.44 µM. For the same compound, the TGI (NCI-H460 lung) was 11.6 µM, the GI50 (NCI-H522 lung) was 5.61 µM and the TGI (NCI-H522 lung) was 21.6 µM. For the same compound, the GI50 (OVCAR-3 ovarian) was 11.1 µM, the TGI (OVCAR-3 ovarian) was 27 µM and the GI50 (OVCAR-4 ovarian) was 4.51 µM. The TGI (OVCAR-4 ovarian) was 19.3 µM, the GI50 (OVCAR-5 ovarian) was 12.5 µM and the TGI (OVCAR-5 ovarian) was 29.4 µM. For the same compound, the GI50 (OVCAR-8 ovarian) was 6.2 µM, the TGI (OVCAR-8 ovarian) was 20.9 µM and the GI50 (PC-3 prostate) was 10.4 µM. For the same compound, the TGI (PC-3 prostate) was 46.8 µM, the GI50 (RPMI-8226 leukemia) was 10.1 µM and the TGI (RPMI-8226 leukemia) was > 100 µM. It also gave a GI50 (RXF 393 renal) of 2.54 µM, a TGI (RXF 393 renal) of 5.96 µM and a GI50 (SF-268 CNS) of 19.2 µM. For the same compound, the TGI (SF-268 CNS) was 79.8 µM, the GI50 (SF-295 CNS) was 1.8 µM and the TGI (SF-295 CNS) was 3.82 µM. For the same compound, the GI50 (SF-539 CNS) was 3.54 µM, the TGI (SF-539 CNS) was 13 µM and the GI50 (SK-MEL-2 melanoma) was 11.4 µM. The TGI (SK-MEL-2 melanoma) was 24.2 µM, the GI50 (SK-MEL-28 melanoma) was 3.9 µM and the TGI (SK-MEL-28 melanoma) was 14.4 µM. The GI50 (SK-MEL-5 melanoma) was 12.5 µM, the TGI (SK-MEL-5 melanoma) was 25.4 µM and the GI50 (SK-OV-3 ovarian) was 15 µM. For the same compound, the TGI (SK-OV-3 ovarian) was 32.4 µM, the GI50 (SN12C renal) was 4.41 µM and the TGI (SN12C renal) was 19.8 µM. It also gave a GI50 (SNB-19 CNS) of 11 µM, a TGI (SNB-19 CNS) of 23.8 µM and a GI50 (SR leukemia) of 4.58 µM. For the same compound, the TGI (SR leukemia) was > 100 µM, the GI50 (SW-620 colon) was 6.46 µM and the TGI (SW-620 colon) was 21.5 µM. It also gave a GI50 (T-47D breast) of 3.25 µM, a TGI (T-47D breast) of 15.6 µM and a GI50 (TK-10 renal) of 4.92 µM. For the same compound, the TGI (TK-10 renal) was 18.8 µM, the GI50 (U251 CNS) was 3.23 µM and the TGI (U251 CNS) was 11.5 µM. It also gave a GI50 (UACC-257 melanoma) of 7.29 µM, a TGI (UACC-257 melanoma) of 21.4 µM and a GI50 (UACC-62 melanoma) of 2.64 µM. It also gave a TGI (UACC-62 melanoma) of 10.9 µM, a GI50 (UO-31 renal) of 12.2 µM and a TGI (UO-31 renal) of 25.4 µM.
